{"source": "patent US20250134953A1", "about": "“COMPOSITIONS FOR TREATING AUTOIMMUNE ARTHRITIS” (DEVINTEC SAGL, priority 2021, published 2025)", "key": {"[1]": {"test_system": "collagen antibody-induced arthritis (CAIA) mice", "assay": "Radiological score (X-ray) of ankle joints in CAIA mice", "type": "in vivo, Male BALB/c mice", "conditions": "oral gavage, score 0-3", "procedure": "(§1) Each compound (140 mg of pea protein; 100 mg of Acacia gum; and 100 mg of alpha-Glucooligosaccharide) were administered in a PBS solution via oral gavage daily, from day 0 to day 14 in mice of Group A, and from day 4 to day 14 in mice of Group B. Prednisolone was administered via oral gavage at the doses of 0.05, 0.2 and 1 mg/kg as disclosed in Oosten, L., Helsen, M., Saxne, T. et al. “Synergistic protection against cartilage destruction by low dose prednisolone and interleukin-10 in established murine collagen arthritis”. Inflamm. Res. 48, 48-55, 1999.\n(§2) The animals were divided into the following two groups: • Group A: the animals were administered with the therapeutic compounds from day 0 to day 14. • Group B: the animals were administered with the therapeutic compounds from day 4 to day 14.\n(§3) Sham+vehicle (negative control) (n=3) • 2. Sham+prednisolone 0.05 mg/kg (n=3) • 3. […] Sham+prednisolone 0.2 mg/kg (n=3) • 5. […] Sham+prednisolone 1 mg/kg (n=3) • 7. […] Sham+MD (n=3) • 9. CAIA+vehicle (positive control) (n=6) • 10. CAIA+prednisolone 0.05 mg/kg (n=6) • 11. […] CAIA+prednisolone 0.2 mg/kg (n=6) • 13. […] CAIA+prednisolone 1 mg/kg (n=6) • 15. […] CAIA+140 mg Pea Protein (n=6) • 18. […] CAIA+200 mg Pea Protein (n=6) • 20. […] CAIA+70 mg Pea Protein (n=6)\nRadiological analysis was carried out using X-ray technique, and radio-logical scoring (level: 0=Normal; 1=Slight; 2=Moderate and 3=Severe) was calculated considering different parameters such as periosteal reaction/hypertrophy, bone erosion, soft tissue swelling, narrowed joint space and osteoporosis in the ankle-joints, as described in Balkrishna A, et al., “Herbo-mineral formulation ‘Ashwashila’ attenuates rheumatoid arthritis symptoms in collagen-antibody-induced arthritis (CAIA) mice model” Sci Rep., 2019; vol. 9(1); pp. 8025."}, "[2]": {"test_system": "collagen antibody-induced arthritis (CAIA) mice", "assay": "Histological score of ankle joints (hind legs) in CAIA mice", "type": "in vivo, Male BALB/c mice", "conditions": "oral gavage", "procedure": "as §1, §2, §3\nHistological analysis was carried out as previously described (Balkrishna A, et al., supra; Mengdi et al., “A novel dexamethasone-loaded liposome alleviates rheumatoid arthritis in rats”; International Journal of Pharmaceutics; 2018; vol. 540(1-2); pp. 57-64) and indicating score analysis of the RA disease-associated lesions such as the moderately enlarged synovial membrane, hyperplastic synovium, the presence of inflammation and bone and cartilage erosion on a 0-4 scale as follows: 0=normal; 1=mild, slight swelling; 2=moderate swelling; 3=severe swelling; 4=maximally inflamed; […].\nHistopathological analysis of the CAIA mice hind legs was performed following fourteen days of treatment. Ankle-joints analysis of the CAIA mice was performed indicating the development of arthritis disease-associated lesions such as the moderately enlarged synovial membrane, hyperplastic synovium, increased synovial vascularity, the presence of inflammation and, bone and cartilage erosion."}, "[3]": {"test_system": "IL-17, IL-6, IL-23, TNF-α and IL-1β", "conditions": "CAIA mice; prednisolone at high doses (group 14); combination groups 13 and 15; FIGS. 1-2", "protocol": "The mAb cocktail contained three mAb (F10, A2, D8) of type IgG2a and one mAb (D1) of type IgG2b in equal amounts, directed to bovine CII (Arthrogen-CIA, Chondrex) suspended in sterile PBS. All WT mice received intraperitnoeal i.p. injections of 8 mg/mouse of Arthrogen on day 0 and 50 ug/mouse of LPS from E. coli strain 0111B4 (Sigma, T 3382) on day 3 to synchronize the development of arthritis. All mice started to develop arthritis at day 4 and were sacrificed at day 14.\nAnimals from group A and B were separated in some the following subgroups, depending on the assay, and administered with the indicated compounds or combination of compounds: • 1. Sham+vehicle (negative control) (n=3) • 2. Sham+prednisolone 0.05 mg/kg (n=3) • 3. Sham+prednisolone 0.05 mg/kg +MD (50 mg acacia gum (AG) +70 mg pea protein (PP)+50 mg alpha-GOS) (n=3) • 4. Sham+prednisolone 0.2 mg/kg (n=3) • 5. Sham+prednisolone 0.2 mg/kg+MD (50 mg AG+70 mg PP+50 mg alpha-GOS) (n=3) • 6. Sham+prednisolone 1 mg/kg (n=3) • 7. Sham+prednisolone 1 mg/kg+MD (50 mg AG+70 mg PP+50 mg alpha-GOS) (n=3) • 8. Sham+MD (n=3) • 9. CAIA+vehicle (positive control) (n=6) • 10. CAIA+prednisolone 0.05 mg/kg (n=6) • 11. CAIA+prednisolone 0.05 mg/kg+MD (50 mg AG+70 mg PP+50 mg alpha-GOS) (n=6) • 12. CAIA+prednisolone 0.2 mg/kg (n=6) • 13. CAIA+prednisolone 0.2 mg/kg (n=6)+MD (50 mg AG+70 mg PP+50 mg alpha-GOS) (n=6) • 14. […]"}, "[4]": {"conditions": "group A (dosed day 0 to day 14), subgroup 10A: prednisolone 0.05 mg/kg"}, "[5]": {"conditions": "group A (dosed day 0 to day 14), subgroup 12A: prednisolone 0.2 mg/kg"}, "[6]": {"conditions": "group A (dosed day 0 to day 14), subgroup 14A: prednisolone 1 mg/kg"}, "[7]": {"conditions": "group B (dosed day 4 to day 14), subgroup 10B: prednisolone 0.05 mg/kg"}, "[8]": {"conditions": "group B (dosed day 4 to day 14), subgroup 12B: prednisolone 0.2 mg/kg"}, "[9]": {"conditions": "group B (dosed day 4 to day 14), subgroup 14B: prednisolone 1 mg/kg"}}, "data": [{"smiles": "C[C@]12C=CC(=O)C=C1CC[C@@H]1[C@@H]2[C@@H](O)C[C@@]2(C)[C@H]1CC[C@]2(O)C(=O)CO", "note": "[prednisolone]", "values": [{"measurement": "Radiological score, MEAN", "setting": "[1]; [4]", "result": 2.3}, {"measurement": "Radiological score, MEAN", "setting": "[1]; [5]", "result": 1.8}, {"measurement": "Radiological score, MEAN", "setting": "[1]; [6]", "result": 1.7}, {"measurement": "Radiological score, MEAN", "setting": "[1]; [7]", "result": 2.6}, {"measurement": "Radiological score, MEAN", "setting": "[1]; [8]", "result": 1.9}, {"measurement": "Radiological score, MEAN", "setting": "[1]; [9]", "result": 1.8}, {"measurement": "Histological score, MEAN", "setting": "[2]; [4]", "result": 1.8}, {"measurement": "Histological score, MEAN", "setting": "[2]; [5]", "result": 1.3}, {"measurement": "Histological score, MEAN", "setting": "[2]; [6]", "result": 1.1}, {"measurement": "Histological score, MEAN", "setting": "[2]; [7]", "result": 2.4}, {"measurement": "Histological score, MEAN", "setting": "[2]; [8]", "result": 1.8}, {"measurement": "Histological score, MEAN", "setting": "[2]; [9]", "result": 1.9}, {"measurement": "cytokine levels (IL-17, IL-6, IL-23, TNF-α and IL-1β) in arthritic hind paws", "setting": "[3]", "result": "significantly reduced the expressions of the aforementioned cytokines"}]}]}
